Laboratory results reported in US9969694B2, “N-(arylalkyl)-N′-pyrazolyl-urea, thiourea, guanidine and cyanoguanidine compounds as TrkA kinase inhibitors” (Array BioPharma Inc., priority 2012, dated 2018).

Each compound was assayed against T1, His-tagged recombinant human TrkA (Homo sapiens, UniProt P04629) (assay: TrkA Kinase Binding Assay (LanthaScreen Eu)). Conditions: averaged IC50; TR-FRET binding, 60 min, 22° C.; read-out: TrkA Enzyme IC50.
T1 construct: 6HIS tagged cytoplasmic domain from Invitrogen, Catalog No. PV3144; purchased Invitrogen PV3144
T1 sequence (P04629 440-796 limits assumed): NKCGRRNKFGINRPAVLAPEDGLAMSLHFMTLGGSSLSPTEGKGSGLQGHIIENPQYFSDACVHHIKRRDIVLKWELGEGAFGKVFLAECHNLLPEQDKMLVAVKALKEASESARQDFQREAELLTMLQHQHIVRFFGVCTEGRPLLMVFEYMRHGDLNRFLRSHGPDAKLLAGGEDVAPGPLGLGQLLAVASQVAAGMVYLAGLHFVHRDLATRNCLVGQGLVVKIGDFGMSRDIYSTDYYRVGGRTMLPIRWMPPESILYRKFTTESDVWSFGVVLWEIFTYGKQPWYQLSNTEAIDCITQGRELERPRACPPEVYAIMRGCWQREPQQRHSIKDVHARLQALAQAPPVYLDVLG
How it was run: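 TR-FRET tracer displacement: 5 nM His-tagged TrkA cytoplasmic domain with 4 nM Tracer 236, biotinylated anti-His and Eu-streptavidin in pH 7.5 MOPS buffer, 2% DMSO, 60 min at 22 °C. 665/615 nm emission ratio gave percent of control; IC50 from four-parameter fit.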

Row | IC50 | SMILES
1 | 100 to 1000 nM | COCc1ccc(CNCC(F)(F)F)c(CNC(=O)Nc2c(C)c(-c3cnn(C)c3)nn2-c2ccccc2)c1 [Example 119, 1-(1′,4-dimethyl-1-phenyl-1H,1′H-[3,4′-bipyrazol]-5-yl)-3-(5-(methoxymethyl)-2-(((2,2,2-trifluoroethyl)amino)methyl)benzyl)urea]
2 | < 100 nM | COCc1ccc(OC(F)(F)F)c(CNC(=O)Nc2c3c(nn2-c2ccccc2)CSC3)c1 [Example 57, 1-(5-(methoxymethyl)-2-(trifluoromethoxy)benzyl)-3-(2-phenyl-4,6-dihydro-2H-thieno[3,4-c]pyrazol-3-yl)urea]
3 | < 100 nM | COCc1ccc(OC(F)(F)F)c(CNC(=O)Nc2c(C)c(O[C@@H]3CCNC[C@@H]3F)nn2-c2ccccc2)c1 [Example 99, 1-(3-(((3S,4R)-3-fluoropiperidin-4-yl)oxy)-4-methyl-1-phenyl-1H-pyrazol-5-yl)-3-(5-(methoxymethyl)-2-(trifluoromethoxy)benzyl)urea]
4 | < 100 nM | O=C(Nc1c2c(nn1-c1ccccc1)CCC2)NC(Cc1ccccc1)Cc1ccc(F)c(F)c1 (stereo not drawn) [Example 47, 1-(1-(3,4-difluorophenyl)-3-phenylpropan-2-yl)-3-(2-phenyl-2,4,5,6-tetrahydrocyclopenta[c]pyrazol-3-yl)urea]
5 | < 100 nM | COCc1ccc(OC(F)F)c(CNC(=O)Nc2c(C)c(-c3cnn(C)c3)nn2-c2ccccc2)c1 [Example 20, 1-(2-(difluoromethoxy)-5-(methoxymethyl)benzyl)-3-(1′,4-dimethyl-1-phenyl-1H,1′H-[3,4′-bipyrazol]-5-yl)urea]
6 | 100 to 1000 nM | COCc1ccc(C2(OC)CCC2)c(CNC(=O)Nc2c(C)c(-c3ccc(C)nc3)nn2-c2ccccc2)c1 [Example 24, 1-(2-(1-methoxycyclobutyl)-5-(methoxymethyl)benzyl)-3-(4-methyl-3-(6-methylpyridin-3-yl)-1-phenyl-1H-pyrazol-5-yl)urea]
7 | < 100 nM | COCc1ccc(OC(F)(F)F)c(CNC(=O)Nc2c(C)c(OC[C@@H]3CNCCO3)nn2-c2ccccc2)c1 [Example 112, (S)-1-(5-(methoxymethyl)-2-(trifluoromethoxy)benzyl)-3-(4-methyl-3-(morpholin-2-ylmethoxy)-1-phenyl-1H-pyrazol-5-yl)urea]
8 | < 100 nM | COCc1ccc(OC(F)(F)F)c(CNC(=O)Nc2c(C)c(OCC3CNC3)nn2-c2ccccc2)c1 [Example 72, 1-(3-(azetidin-3-ylmethoxy)-4-methyl-1-phenyl-1H-pyrazol-5-yl)-3-(5-(methoxymethyl)-2-(trifluoromethoxy)benzyl)urea]
9 | < 100 nM | COCc1ccc(C2CCC2)c(CNC(=O)Nc2c(C)c(-c3ccc(C)nc3)nn2-c2ccccc2)c1 [Example 8, 1-(2-cyclobutyl-5-(methoxymethyl)benzyl)-3-(4-methyl-3-(6-methylpyridin-3-yl)-1-phenyl-1H-pyrazol-5-yl)urea]
10 | 100 to 1000 nM | CSc1ccc(C2CCC2)c(CNC(=O)Nc2c(C)c(-c3cnn(C)c3)nn2-c2ccccc2)c1 [Example 127, 1-(2-cyclobutyl-5-(methylthio)benzyl)-3-(1′,4-dimethyl-1-phenyl-1H,1H-[3,4′-bipyrazol]-5-yl)urea]
11 | < 100 nM | COCc1ccc(C2CCC2)c(CNC(=O)Nc2c(C)c(-c3ccc(=O)n(C)c3)nn2-c2ccccc2)c1 [Example 9, 1-(2-cyclobutyl-5-(methoxymethyl)benzyl)-3-(4-methyl-3-(1-methyl-6-oxo-1,6-dihydropyridin-3-yl)-1-phenyl-1H-pyrazol-5-yl)urea]
12 | < 100 nM | COCc1ccc(OC(F)(F)F)c(CNC(=O)Nc2c(C)c(OCCO)nn2-c2ccccc2)c1 [Example 63, 1-(3-(2-hydroxyethoxy)-4-methyl-1-phenyl-1H-pyrazol-5-yl)-3-(5-(methoxymethyl)-2-(trifluoromethoxy)benzyl)urea]
13 | < 100 nM | COCc1ccc(OC(F)(F)F)c(CNC(=O)Nc2c(C)c(OC[C@H]3COCCN3C)nn2-c2ccccc2)c1 [Example 113]
14 | < 100 nM | COCc1ccc(C2CC(F)(F)C2)c(CNC(=O)Nc2c(C)c(-c3cnn(C)c3)nn2-c2ccccc2)c1 [Example 38, 1-(2-(3,3-difluorocyclobutyl)-5-(methoxymethyl)benzyl)-3-(1′,4-dimethyl-1-phenyl-1H,1′H-[3,4′-bipyrazol]-5-yl)urea]
15 | < 100 nM | O=C(Nc1c2c(nn1-c1ccccc1)CCC2)NC(Cc1ccccc1)Cc1ccccc1 [Example 42, 1-(1,3-diphenylpropan-2-yl)-3-(2-phenyl-2,4,5,6-tetrahydrocyclopenta[c]pyrazol-3-yl)urea]
16 | < 100 nM | COCc1ccc(OCC2CC2)c(CNC(=O)Nc2c(C)c(-c3cnn(C)c3)nn2-c2ccccc2)c1 [Example 14, 1-(2-(cyclopropylmethoxy)-5-(methoxymethyl)benzyl)-3-(1′,4-dimethyl-1-phenyl-1H,1′H-[3,4′-bipyrazol]-5-yl)urea]
17 | 100 to 1000 nM | CCSc1ccc(C2CCC2)c(CNC(=O)Nc2c(C)c(-c3cnn(C)c3)nn2-c2ccccc2)c1 [Example 128, 1-(2-cyclobutyl-5-(ethylthio)benzyl)-3-(1′,4-dimethyl-1-phenyl-1H,1′H-[3,4′-bipyrazol]-5-yl)urea]

Row | IC50 | SMILES
18 | < 100 nM | COCc1ccc(C2CCC2)c(CNC(=O)Nc2c(C)c(-c3cnn(C)c3)nn2-c2ccccc2)c1 [Example 11, 1-(2-cyclobutyl-5-(methoxymethyl)benzyl)-3-(1′,4-dimethyl-1-phenyl-1H,1′H-[3,4′-bipyrazol]-5-yl)urea]
19 | < 100 nM | COCc1ccc(OC(F)(F)F)c(CNC(=O)Nc2c(C)c(OCC3(F)CCN(C)C3)nn2-c2ccccc2)c1 (stereo not drawn) [Example 76, 1-(3-((3-fluoro-1-methylpyrrolidin-3-yl)methoxy)-4-methyl-1-phenyl-1H-pyrazol-5-yl)-3-(5-(methoxymethyl)-2-(trifluoromethoxy)benzyl)urea]
20 | 100 to 1000 nM | O=C(Nc1c2c(nn1-c1ccccc1)CCC2)NC(Cc1ccccc1Cl)c1ccccc1 (stereo not drawn) [Example 45, 1-(2-(2-chlorophenyl)-1-phenylethyl)-3-(2-phenyl-2,4,5,6-tetrahydrocyclopenta[c]pyrazol-3-yl)urea]
21 | < 100 nM | COCc1ccc(OC(F)(F)F)c(CNC(=O)Nc2c(C)c(OC[C@@H]3CN(C)CCO3)nn2-c2ccccc2)c1 [Example 114, (S)-1-(5-(methoxymethyl)-2-(trifluoromethoxy)benzyl)-3-(4-methyl-3-((4-methylmorpholin-2-yl)methoxy)-1-phenyl-1H-pyrazol-5-yl)urea]
22 | < 100 nM | COCc1ccc(C2CC2)c(CNC(=O)Nc2c(C)c(C)nn2-c2ccccc2)c1 [Example 5, 1-(2-cyclopropyl-5-(methoxymethyl)benzyl)-3-(3,4-dimethyl-1-phenyl-1H-pyrazol-5-yl)urea]
23 | 100 to 1000 nM | O=C(Nc1c2c(nn1-c1ccccc1)CCC2)NC(Cc1ccccc1)c1ccccc1 (stereo not drawn) [Example 40, 1-(1,2-diphenylethyl)-3-(2-phenyl-2,4,5,6-tetrahydrocyclopenta[c]pyrazol-3-yl)urea]
24 | < 100 nM | COCc1ccc(OC(F)(F)F)c(CNC(=O)Nc2c(C)c(O[C@@H]3CCN(C)C3)nn2-c2ccccc2)c1 [Example 82, (R)-1-(5-(methoxymethyl)-2-(trifluoromethoxy)benzyl)-3-(4-methyl-3-((1-methylpyrrolidin-3-yl)oxy)-1-phenyl-1H-pyrazol-5-yl)urea]
25 | < 100 nM | COCc1ccc(OC(F)(F)F)c(CNC(=O)Nc2c(C)c(OC[C@H](O)CO)nn2-c2ccccc2)c1 [Example 65, (R)-1-(3-(2,3-dihydroxypropoxy)-4-methyl-1-phenyl-1H-pyrazol-5-yl)-3-(5-(methoxymethyl)-2-(trifluoromethoxy)benzyl)urea]
26 | < 100 nM | COCc1ccc(OCC(F)(F)F)c(CNC(=O)Nc2c(C)c(-c3cnc(OC)nc3)nn2-c2ccccc2)c1 [Example 69, 1-(5-(methoxymethyl)-2-(2,2,2-trifluoroethoxy)benzyl)-3-(3-(2-methoxypyrimidin-5-yl)-4-methyl-1-phenyl-1H-pyrazol-5-yl)urea]
27 | < 100 nM | COCc1ccc(OC(F)(F)F)c(CNC(=O)Nc2c(C)c(OC3CCNCC3)nn2-c2ccccc2)c1 [Example 78, 1-(5-(methoxymethyl)-2-(trifluoromethoxy)benzyl)-3-(4-methyl-1-phenyl-3-(piperidin-4-yloxy)-1H-pyrazol-5-yl)urea]
28 | < 100 nM | COCc1ccc(OC(F)(F)F)c(CNC(=O)Nc2c(C)c(O[C@@H]3CCN(C)C[C@H]3F)nn2-c2ccccc2)c1 [Example 98, 1-(3-(((3R,4R)-3-fluoro-1-methylpiperidin-4-yl)oxy)-4-methyl-1-phenyl-1H-pyrazol-5-yl)-3-(5-(methoxymethyl)-2-(trifluoromethoxy)benzyl)urea]
29 | < 100 nM | COCc1ccc(OC(F)F)c(CNC(=O)Nc2c(C)c(OCC3CCN(C)C3)nn2-c2ccccc2)c1 (stereo not drawn) [Example 107, 1-(2-(difluoromethoxy)-5-(methoxymethyl)benzyl)-3-(4-methyl-3-((1-methylpyrrolidin-3-yl)methoxy)-1-phenyl-1H-pyrazol-5-yl)urea]
30 | 100 to 1000 nM | CNC(=O)c1nn(-c2ccccc2)c(NC(=O)NCc2cc(COC)ccc2OCC(F)(F)F)c1C [Example 68, 5-(3-(5-(methoxymethyl)-2-(2,2,2-trifluoroethoxy)benzyl)ureido)-N,4-dimethyl-1-phenyl-1H-pyrazole-3-carboxamide]
31 | < 100 nM | COCc1ccc(C2CC2(F)F)c(CNC(=O)Nc2c(C)c(-c3cnn(C)c3)nn2-c2ccccc2)c1 (stereo not drawn) [Example 25, 1-(2-(2,2-difluorocyclopropyl)-5-(methoxymethyl)benzyl)-3-(1′,4-dimethyl-1-phenyl-1H,1′H-[3,4′-bipyrazol]-5-yl)urea 2,2,2-trifluoroacetate]
32 | < 100 nM | COCc1ccc(OC(F)(F)F)c(CNC(=O)Nc2c(C)c(OCc3nnc(C)o3)nn2-c2ccccc2)c1 [Example 61]
33 | < 100 nM | COCc1ccc(C2CCCC2)c(CNC(=O)Nc2c(C)c(-c3ccc(C)nc3)nn2-c2ccccc2)c1 [Example 13, 1-(2-cyclopentyl-5-(methoxymethyl)benzyl)-3-(4-methyl-3-(6-methylpyridin-3-yl)-1-phenyl-1H-pyrazol-5-yl)urea]
